Results taken from patent US11951171B2, “Polypeptide EXP and its drug delivery system as well as extracellular vesicle extraction” (TIANJIN MEDICAL UNIVERSITY, priority 2019, dated 2024).

Columns and labels:
exosomes in serum = assay: Capture of serum exosomes with His-tagged peptide coated nickel beads
Description: (A) Nano sight was used to detect the particle size of exosomes in serum captured by CP05 and EXP. It's shown by the results that the particle size of exosomes captured by EXP was about 50 nm, whose homogeneity was higher than that of exosomes recovered by ultra separation. […] It's shown by the results that exosomes captured by EXP has typical bi-layer structure, and the size of exosomes captured by EXP was smaller than that of exosomes recovered by ultrafiltration.(D) Western blot was used to detect the marker protein capturing exosome.
Experimental example 6: Characterization and functional validation of exosome captured from serum by EXP. • (1) His-tagged EXP and CP05 (100 μg) were respectively mixed with […] beads in 200 μl binding solution at 4° C. for 1 h under rotation. • (2) 1 ml pre-centrifuged serum was added to His-EXP and His-CP05 coated nickel beads (centrifuged at 4400 g for 20 min, followed by 13000 g for 5 min), and then incubated at 4° C. for 30 min; • (3) The serum was discarded and the nonspecific binding was washed with the washing solution for 3 times, 10 min each time. • (4) […] was used to recover extracellular vesicles.
6.1 Measurement of the size of captured exosomes. • (1) […] of exosomes recovered from elution were diluted into 1 ml of PBS. • (2) Nanosight was used to detect the size distribution of captured exosomes. […]

[1] = system: exosome from differentiated muscle cells C2C12(dC2C12); assay: Flow cytometry binding of FAM-labeled peptides to exosome; set-up: species or system murine
Description: The FAM-labeled peptides EXP, CP05, 39880, 39881 were respectively co-incubated with exosome from differentiated muscle cells C2C12(dC2C12), and the binding efficiency of different polypeptides with exosome was detected by flow cytometry.
Each sign in the figure represents the detection results of the following sequences: EXO represents exosomes derived from murine myotubes; CP05 represents the polypeptide which is recorded in the prior art Chinese patent No. CN201510520565.7; EXP represents the polypeptide of the present invention (SEQ ID NO.1). 39880 and 399881 respectively represent two other variants of CP05. (A) Flow cytometry to detected the binding efficiency of different peptides with exosomes. […] (B) Flow cytometry to detected the capacity to enter cells of different peptides mediated by exosome. The equivalent amount FAM-labeled polypeptides were incubated with exosome derived from dC2C12 and added into C2C12 cells, and the capacity of enter cells was detected 24 hours later. It's shown by the results that 65.6% of EXO-EXP entered cells whose capacity is highest. (C) Quantitative analysis of different peptides entering cells mediated by exosome. […] (D) the binding efficiency of different amount gradients of CP05 and EXP to the equivalent amount of exosomes was detected by Flow cytometry to. Different amounts of EXP and CP05(0.03 μg, […], 0.3 μg) were co-incubated with exosomes (10 μg), and their binding efficiency was compared by flow cytometry.
1.1 Flow cytometry is used to detect the binding capacity of EXP and other peptides to exosome. • (1) FAM-labeled CP05 and other peptides respectively with amount of […] were mixed with exosome from different source like dC2C12, CDC and serum respectively with amount of […], and DPBS is used to make up a deficiency to 200 μl in volume with. • (2) The mixture prepared as described in (1) was incubated at 4° C. for 2-4 hrs under rotation in vertical shaker. • (3) the binding efficiency was detected with flow cytometry.

exosomes = assay: Competitive binding of CP05 and EXP to exosomes (flow cytometry); conditions: peptide alone with exosomes (FIG. 3A, first line)
Description: AF750 (APC-Cy7)-labeled CP05 and FAM-labeled CP05 or EXP were co-incubated with exosomes at ratios of 1:1 or 1:5 (mass ratio), and the binding efficiency was detected with flow cytometry. It's shown by the results that when EXP and CP05 were incubated with exosomes at the same time, EXP could compete with CP05 to combine with exosomes, thus reducing the binding efficiency of CP05 and exosomes. (A) Flow cytometry to detect the binding efficiency of EXP or CP05 to exosomes. EXO was used as negative control; EXOCP05 is the binding efficiency of CP05 (FAM, af750) separately labeled by different fluorescence labeling with exosomes. EXOEXP is the binding efficiency of FAM labeled EXP andexosomes. 1:1, 1:5, 1:10 means different mass ratios of AF750 and FAM-EXP/FAM-CP05 are respectively as 1:1, 1:5, 1:10. It's shown by the results of flow cytometryto that the binding efficiency of CP05 alone with EXO was about 70%, while that of EXP and exosomes was 91.5% (flow cytometry to chart: the first line). […] However, it's found by comparing different fluorescence CP05 molecules (flow cytometry to chart: the third line) that, the binding efficiency of EXOCP05 (AF750) remained unchanged with increasing the mass ratio of FAM-CP05. […] Different fluorescence-labeled CP05 (APC-Cy7, FAM) were co-incubated with exosomes, their binding efficiency is detected with flow cytometry. […]

CRHKMWTVKSRL (EXP)
capture efficiency of exosomes in serum (exosomes in serum; FIG. 6F): 93.5% | extraction rate of serum exosomes compared with CP05 (exosomes in serum; extraction of serum exosomes): about 2 times | binding efficiency with exosome under different amount gradients, compared with CP05 ([1]; 0.03 μg, 0.06 g, 0.3 μg peptide co-incubated with exosomes (10 μg), FIG. 1D): all higher than that of CP05 | binding efficiency to exosomes ([1]; FAM-labeled peptide co-incubated with exosome from dC2C12, flow cytometry (FIG. 1A)): up to 95.5% | binding efficiency of EXP with exosomes compared to CP05 ([1]; under the same conditions): about 2 times | binding efficiency of peptide alone with EXO (exosomes): 91.5%
